Reference: PubChem BioAssay (NCI)
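Test compounds were applied to cells in 96-well plates for 48 hours at 5 doses. Here, GI50 denotes the concentration required for 50% inhibition of growth. TGI denotes the concentration required for complete inhibition of growth.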

Key:
Test in all cases: inhibition of tumour cell growth, NCI panel, 48 h
RXF-631 renal = tested on: RXF-631 renal
XF 498 CNS = tested on: XF 498 CNS
LXFL 529 NSCLC = tested on: LXFL 529 NSCLC
SNB-78 CNS = tested on: SNB-78 CNS
KM20L2 colon = tested on: KM20L2 colon
HOP-18 NSCLC = tested on: HOP-18 NSCLC
DMS 114 small cell lung = tested on: DMS 114 small cell lung
M19-MEL melanoma = tested on: M19-MEL melanoma
MDA-N = tested on: MDA-N

Compound: Cc1ccc(NC(=O)CCC(=O)C(C#N)c2ccccc2)cc1C (stereo unspecified)
- TGI (RXF-631 renal): > 100 µM
- TGI (XF 498 CNS): > 100 µM
- TGI (LXFL 529 NSCLC): > 100 µM
- TGI (SNB-78 CNS): > 100 µM
- TGI (KM20L2 colon): > 100 µM
- TGI (HOP-18 NSCLC): > 100 µM
- TGI (DMS 114 small cell lung): > 100 µM

Compound: C[n+]1c(N)n(C(=O)OCc2ccccc2)c(=O)c2c1ncn2C(=O)OCc1ccccc1
- TGI (LXFL 529 NSCLC): > 100 µM
- TGI (SNB-78 CNS): > 100 µM
- TGI (KM20L2 colon): > 100 µM
- TGI (HOP-18 NSCLC): > 100 µM
- TGI (M19-MEL melanoma): > 100 µM
- TGI (DMS 114 small cell lung): > 100 µM

Compound: NCP(=O)(O)OCC(=O)O
- TGI (XF 498 CNS): > 100 µM
- TGI (LXFL 529 NSCLC): > 100 µM
- TGI (SNB-78 CNS): > 100 µM
- TGI (HOP-18 NSCLC): > 100 µM
- TGI (DMS 114 small cell lung): > 100 µM

Compound: COc1ccc2c(c1)OCCC1=C2SCC2(C)CCN=C12 (stereo unspecified)
- TGI (XF 498 CNS): > 100 µM
- TGI (LXFL 529 NSCLC): > 100 µM
- TGI (SNB-78 CNS): > 100 µM
- TGI (KM20L2 colon): > 100 µM
- TGI (HOP-18 NSCLC): > 100 µM
- TGI (DMS 114 small cell lung): > 100 µM

Compound: O=C(/C(=C/c1ccccc1)c1ccccc1)N1c2ccccc2CC1c1c[nH]c2ccccc12 (stereo unspecified)
- TGI (XF 498 CNS): 8.95 µM
- TGI (LXFL 529 NSCLC): > 100 µM
- TGI (SNB-78 CNS): > 100 µM
- TGI (KM20L2 colon): > 100 µM
- TGI (M19-MEL melanoma): > 100 µM
- TGI (DMS 114 small cell lung): > 100 µM

Compound: COC(=O)Cc1nc2ccccc2o1
- TGI (RXF-631 renal): > 100 µM
- TGI (XF 498 CNS): > 100 µM
- TGI (LXFL 529 NSCLC): > 100 µM
- TGI (SNB-78 CNS): > 100 µM
- TGI (KM20L2 colon): 46.4 µM
- TGI (HOP-18 NSCLC): > 100 µM
- TGI (M19-MEL melanoma): > 100 µM
- TGI (DMS 114 small cell lung): > 100 µM

Compound: CN(C)CC1CCCC/C1=N/OC(=O)c1ccc(Cl)c(Cl)c1 (stereo unspecified)
- TGI (RXF-631 renal): > 100 µM
- TGI (LXFL 529 NSCLC): > 100 µM
- TGI (KM20L2 colon): > 100 µM
- TGI (HOP-18 NSCLC): > 100 µM
- TGI (M19-MEL melanoma): > 100 µM
- TGI (DMS 114 small cell lung): > 100 µM

Compound: CCOC(=O)/N=c1/nc(N(C)C)ss1
- TGI (RXF-631 renal): > 100 µM
- TGI (XF 498 CNS): > 100 µM
- TGI (LXFL 529 NSCLC): > 100 µM
- TGI (SNB-78 CNS): > 100 µM
- TGI (KM20L2 colon): > 100 µM
- TGI (HOP-18 NSCLC): > 100 µM
- TGI (DMS 114 small cell lung): > 100 µM

Compound: NS(=O)(=O)c1ccc(NC(=O)COC(=O)c2cccc3c(=O)c4ccccc4[nH]c23)cc1
- TGI (RXF-631 renal): > 100 µM
- TGI (LXFL 529 NSCLC): 20.9 µM
- TGI (SNB-78 CNS): 44.5 µM
- TGI (KM20L2 colon): > 100 µM
- TGI (HOP-18 NSCLC): 58.9 µM
- TGI (M19-MEL melanoma): > 100 µM
- TGI (DMS 114 small cell lung): 52.3 µM

Compound: C1CC[N-]CC1.CC(=N\O)/C(C)=N/O.CC(=N\O)/C(C)=N/O.[CH2-]CCN1CCOCC1.[Co+2]
- GI50 (MDA-N): > 100 µM
- TGI (MDA-N): > 100 µM

Compound: COc1ccc(/C=N/N=C(\[O-])c2ccncc2)cc1F.COc1ccc(/C=N\N=C(/[O-])c2ccncc2)cc1F.[Cu+2]
- GI50 (MDA-N): 32.7 µM
- TGI (MDA-N): > 100 µM

Compound: COc1ccc(C(=O)O/N=C2/CCC/C2=C\c2ccccc2)cc1
- TGI (RXF-631 renal): > 100 µM
- TGI (XF 498 CNS): > 100 µM
- TGI (LXFL 529 NSCLC): > 100 µM
- TGI (SNB-78 CNS): > 100 µM
- TGI (KM20L2 colon): > 100 µM
- TGI (HOP-18 NSCLC): > 100 µM
- TGI (M19-MEL melanoma): > 100 µM
- TGI (DMS 114 small cell lung): > 100 µM

Compound: Cn1ccnc1C[N-]Cc1nccn1C.O=[N+]([O-])[O-].O=[N+]([O-])[O-].[Cu+2]
- GI50 (LXFL 529 NSCLC): > 100 µM
- TGI (LXFL 529 NSCLC): > 100 µM
- GI50 (SNB-78 CNS): > 100 µM
- TGI (SNB-78 CNS): > 100 µM
- GI50 (KM20L2 colon): > 100 µM
- TGI (KM20L2 colon): > 100 µM
- GI50 (HOP-18 NSCLC): > 100 µM
- TGI (HOP-18 NSCLC): > 100 µM
- GI50 (DMS 114 small cell lung): > 100 µM
- TGI (DMS 114 small cell lung): > 100 µM

Compound: Cc1cc(O)cc2c1c(=O)c1ccccc1n2C
- TGI (MDA-N): > 100 µM

Compound: COc1ccc(NC(=O)/C=C(C)/C=C/C=C(C)\C=C\C2=C(C)CCCC2(C)C)cc1
- GI50 (MDA-N): 55.3 µM
- TGI (MDA-N): > 100 µM

Compound: COc1ccc2nc3cccc(C(=O)NCCN(C)C)c3nc2c1
- TGI (RXF-631 renal): > 100 µM
- TGI (XF 498 CNS): 0.696 µM
- TGI (SNB-78 CNS): 9.01 µM
- TGI (KM20L2 colon): 6.46 µM
- TGI (HOP-18 NSCLC): > 21.8 µM
- TGI (M19-MEL melanoma): 3.5 µM
- TGI (DMS 114 small cell lung): 3.45 µM

Compound: Cc1cc(O)c(C(c2ccncc2)c2c(O)cc(C)[nH]c2=O)c(=O)[nH]1
- TGI (MDA-N): > 100 µM

Compound: NS(=O)(=O)c1ccc(NC(=O)Nc2ccccc2F)cc1
- TGI (MDA-N): > 100 µM

Compound: CN(C)CCNc1nc(-c2cccs2)cc(-c2cccs2)n1
- TGI (XF 498 CNS): 12.1 µM
- TGI (LXFL 529 NSCLC): 28.1 µM
- TGI (SNB-78 CNS): 34.1 µM
- TGI (DMS 114 small cell lung): 33.6 µM
